Assay results: article PMC11781366 (Immunity, 2023)

Tests used:
D. serrata STING = assay: microscale thermophoresis in lysates of transfected S2 cells; assay type: biochemical, Drosophila serrata
[1] = target: T1, D. melanogaster STING (dSTING) (Drosophila melanogaster, UniProt A0A0B4LFY9); assay: as above; assay type: biochemical
T1 sequence (A0A0B4LFY9 1-343): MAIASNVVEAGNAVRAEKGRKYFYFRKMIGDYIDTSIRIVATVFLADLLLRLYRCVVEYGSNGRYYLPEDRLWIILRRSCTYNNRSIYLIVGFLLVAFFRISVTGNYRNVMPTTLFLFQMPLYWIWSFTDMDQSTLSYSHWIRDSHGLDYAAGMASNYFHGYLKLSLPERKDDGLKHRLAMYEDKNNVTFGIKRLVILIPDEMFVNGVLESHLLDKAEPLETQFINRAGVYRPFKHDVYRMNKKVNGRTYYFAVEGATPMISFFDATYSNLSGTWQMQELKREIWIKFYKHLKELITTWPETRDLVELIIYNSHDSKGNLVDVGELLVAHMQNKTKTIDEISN

Nc1nc2c(ncn2[C@@H]2O[C@@H]3COP(=O)(O)O[C@@H]4[C@H](O)[C@@H](COP(=O)(O)O[C@H]3[C@H]2O)O[C@H]4n2cnc3c(=O)[nH]c(N)nc32)c(=O)[nH]1 [2′3′-c-di-GMP]
Kd (D. serrata STING): 36.7 µM
Kd [1]: 28.2 µM
